From ChEMBL document CHEMBL1146811, “Specific inhibition effects of N-pentafluorobenzyl-1-deoxynojirimycin on human CD4+ T cells” (Bioorg Med Chem Lett, 2004)

Experiment: Effect on proliferation of human peripheral blood mononuclear cells (PMBC) at 72 hr using MTT assay
Type: functional

SMILES: OCC1C(O)C(O)C(O)CN1Cc1c(F)c(F)c(F)c(F)c1F (configuration not stated)
- IC50: 20.2 µM

SMILES: OC[C@H]1NC[C@H](O)[C@@H](O)[C@@H]1O [DUVOGLUSTAT]
- IC50: 25.6 µM
